Article PMC11085872, “Structure-Based Design of Novel Thiazolone[3,2-a]pyrimidine Derivatives as Potent RNase H Inhibitors for HIV Therapy” (Molecules, 2024)

Key:
[1] = target: T1, HIV-1 RT-associated RNase H (Human immunodeficiency virus type 1 group M subtype B, UniProt P03366); assay: RNase H polymerase-independent cleavage assay; type: biochemical; settings: for IC50: IC50, compound concentration required to reduce HIV-1 RT-associated RNase H activity by 50%; for remaining activity at 100 µM: read-out: Percentage of the control activity measured at the indicated compound concentration
T1 construct: His-tagged p66/p51 HIV-1 RT group M subtype B; His tag; made in house; host or cells: Escherichia coli strain M15 (plasmid p6HRT-prot)
Procedure: The Ar^1 and Ar^2 aromatic segments of the molecule also approach the protein surface, through hydrophobic interactions. These findings provide important information for further structural optimization. All these newly designed thiazolone[3,2-a]pyrimidine derivatives were evaluated for their inhibitory activity against HIV RT-associated RNase H, using the diketo acid RDS1643 as positive control. […] The decrease in activity observed in compounds containing a sulfonic acid group might be attributed to the excessively strong acidity of the sulfonic acid group, which could protonate the diazo group within the molecule. […] When Ar^2 was changed from a phenyl group to a naphthyl group, the activity of compound 10f gained a great improvement over that of compound 10k. […] And when a negatively charged polar group was present at the 2-position of Ar^2, the inhibitory activity is enhanced. […]
3. Biology Experimental section
3.1 Expression and purification of recombinant HIV-1 RTs.
His-tagged p66/p51 HIV-1 RT group M subtype B coded in a p6HRT-prot plasmid was expressed in the Escherichia coli strain M15.1 Heterodimeric RTs were expressed essentially and purified as described.2 E. coli cells harboring the expression vector were cultured until reaching an optical density at 600 nm of 0.7. Induction of protein expression was achieved by treating the cells with 1.7 mM isopropyl β-D-1-thiogalactopyranoside (IPTG) for a duration of 4 hours. The subsequent purification of the protein was performed using a BioLogic LP system (BioRad) employing a combination of immobilized metal affinity chromatography and ion exchange […]
To initiate the purification process, the cell pellets were resuspended in lysis buffer at a ratio of 1:2 (cell pellet volume: lysis buffer volume). The lysis buffer used consisted of 50 mM sodium phosphate buffer with a pH of 7.8, supplemented with 0.5 mg/ml lysozyme. The resuspended cells were incubated on ice for 20 minutes. Following this, NaCl was added to achieve a final concentration of 0.3 M. The cells were then subjected to sonication, with four cycles of 60 seconds each, alternating between one second on and one second off. Subsequently, the cell lysate was centrifuged at 30, 000×g for 1 […]
The supernatant obtained from the centrifugation step was loaded onto a Ni2+-NTA-Sepharose column that had been pre-equilibrated with a loading buffer consisting of 50 mM sodium phosphate buffer (pH 7.8), 0.3 M NaCl, 10% glycerol, and 10 mM imidazole. The column was washed with a buffer containing 50 mM sodium phosphate buffer (pH 6.0), 0.3 M NaCl, 10% glycerol, and 80 mM imidazole. The target protein, RT, was eluted using an imidazole gradient ranging from 0.08 M to 0.5 M in the wash buffer. Fractions containing the enzyme were collected and combined, and then diluted 1:1 with 50 mM sodium phosphate buffer (pH 7.0) containing 10% glycerol. The diluted protein sample was loaded onto a Hi-trap heparin HP column that had been pre-equilibrated with 10 column volumes of a loading buffer consisting of 50 mM sodium phosphate buffer (pH 7.0), 10% glycerol, and 150 mM NaCl. The column was washed with the loading buffer, and the RT enzyme was eluted using Elute Buffer 2, which
(1 picture or pasted object on this page, not shown here) […]
comprised 50 mM sodium phosphate buffer (pH 7.0), 10% glycerol, and 1 M NaCl.
The eluted fractions containing the purified protein were collected, and the protein was subsequently dialyzed and stored in a buffer composed of 50 mM Tris-HCl (pH 7.0), 25 mM NaCl, 1 mM EDTA, and 50% glycerol. The catalytic activities of the purified protein samples were determined, and aliquots were stored at -80 °C for further use.
3.2 RNase H Polymerase-Independent Cleavage Assay
The HIV-1 RT-associated RNase H activity was measured as described.3 In summary, the reaction was performed in a black 96-well plate with a total volume of 100 μL. The reaction mix consisted of 50 mM Tris HCl (pH 7.8), 6 mM MgCl2, 1 mM dithiothreitol […]

[2] = recombinant HIV-1 wt RT, hybrid RNA/DNA substrate, 37 °C, 1 hour

Row | Compound | IC50, compound concentration required to reduce HIV-1 RT-associated RNase H activity by 50% [1, 2] [µM] | IC50 [1, 2] [µM] | remaining activity at 100 µM [1] [%] | melting point [°C]
1 | CCOC(=O)C(=O)CC(=O)/C=C/c1cccn1Cc1ccc(F)cc1 [RDS1643, reference compound] | 8.6 ± 1.30 |  |  | 
2 | COC(=O)C1=C(C)N=C2SC(=NNc3ccc(OC)cc3S(=O)(=O)O)C(=O)N2C1c1ccc(OC)c(OC)c1OC (centres unmarked) [Compound 11f, 5-Methoxy-2-(2-(6-(methoxycarbonyl)-7-methyl-3-oxo-5-(2,3,4-trimethoxyphenyl)-5H-thiazolo[3,2-a]pyrimidin-2(3H)-ylidene)hydrazineyl)benzenesulfonic acid] |  | > 100 | 61 | 244 to 246
3 | COC(=O)C1=C(C)N=C2S/C(=N\Nc3ccc4ccccc4c3S(=O)(=O)O)C(=O)N2C1c1ccccc1 (centres unmarked) [Compound 10f] |  | 7.04 ± 0.57 |  | 289 to 293
4 | COC(=O)C1=C(C)N=C2SC(=NNc3ccccc3O)C(=O)N2C1c1ccccc1 (centres unmarked) [Compound 10a, Methyl 2-(2-(2-hydroxyphenyl)hydrazineylidene)-7-methyl-3-oxo-5-phenyl-2,3-dihydro-5H-thiazolo[3,2-a]pyrimidine-6-carboxylate] |  | 18.2 ± 0.85 |  | 227 to 229
5 | COC(=O)C1=C(C)N=C2SC(=NNc3ccccc3C(C)=O)C(=O)N2C1c1ccc(OC)c(OC)c1OC (centres unmarked) [Compound 11i, Methyl 2-(2-(2-acetylphenyl)hydrazineylidene)-7-methyl-3-oxo-5-(2,3,4-trimethoxyphenyl)-2,3-dihydro-5H-thiazolo[3,2-a]pyrimidine-6-carboxylate] |  | > 100 | 100 | 205 to 208
6 | COC(=O)C1=C(C)N=C2SC(=NNc3ccccc3C(=O)OC)C(=O)N2C1c1ccc(OC)cc1 (centres unmarked) [Compound 12b, Methyl 2-(2-(2-(methoxycarbonyl)phenyl)hydrazineylidene)-5-(4-methoxyphenyl)-7-methyl-3-oxo-2,3-dihydro-5H-thiazolo[3,2-a]pyrimidine-6-carboxylate] |  | 2.97 ± 0.88 |  | 219 to 221
7 | COC(=O)C1=C(C)N=C2S/C(=N\Nc3ccccc3S(=O)(=O)O)C(=O)N2C1c1ccccc1 (centres unmarked) [Compound 10k, (2-(6-(Methoxycarbonyl)-7-methyl-3-oxo-5-phenyl-5H-thiazolo[3,2-a]pyrimidin-2(3H)-ylidene)hydrazineyl)benzenesulfonic acid] |  | > 100 | 85 | 262 to 266
8 | COC(=O)C1=C(C)N=C2S/C(=N\Nc3ccc4ccccc4c3S(=O)(=O)O)C(=O)N2C1c1ccc(OC)cc1 (centres unmarked) [Compound 12f] |  | 3.28 |  | 271 to 273
9 | COC(=O)C1=C(C)N=C2SC(=NNc3cc(OC)c(OC)c(OC)c3)C(=O)N2C1c1ccc(OC)cc1 (centres unmarked) [Compound 12e, Methyl 5-(4-methoxyphenyl)-7-methyl-3-oxo-2-(2-(3,4,5-trimethoxyphenyl)hydrazineylidene)-2,3-dihydro-5H-thiazolo[3,2-a]pyrimidine-6-carboxylate] |  | 8.99 ± 0.27 |  | 204 to 206
10 | COC(=O)C1=C(C)N=C2SC(=NNc3cccc([N+](=O)[O-])c3)C(=O)N2C1c1ccc(OC)c(OC)c1OC (centres unmarked) [Compound 11d, Methyl 7-methyl-2-(2-(3-nitrophenyl)hydrazineylidene)-3-oxo-5-(2,3,4-trimethoxyphenyl)-2,3-dihydro-5H-thiazolo[3,2-a]pyrimidine-6-carboxylate] |  | 10.1 ± 1.64 |  | 236 to 238
11 | COC(=O)C1=C(C)N=C2SC(=NNc3ccccc3C(=O)OC)C(=O)N2C1c1ccc(OC)c(OC)c1OC (centres unmarked) [Compound 11h, Methyl 2-(2-(2-(methoxycarbonyl)phenyl)hydrazineylidene)-7-methyl-3-oxo-5-(2,3,4-trimethoxyphenyl)-2,3-dihydro-5H-thiazolo[3,2-a]pyrimidine-6-carboxylate] |  | 10 ± 0.95 |  | 200 to 202
12 | COC(=O)C1=C(C)N=C2SC(=NNc3ccccc3)C(=O)N2C1c1ccc(OC)c(OC)c1OC (centres unmarked) [Compound 11b, Methyl 7-methyl-3-oxo-2-(2-phenylhydrazineylidene)-5-(2,3,4-trimethoxyphenyl)-2,3-dihydro-5H-thiazolo [3,2-a]pyrimidine-6-carboxylate] |  | 48.9 ± 4.73 |  | 189 to 192
13 | COC(=O)C1=C(C)N=C2SC(=NNc3ccccc3C(C)=O)C(=O)N2C1c1ccccc1 (centres unmarked) [Compound 10g, Methyl 2-(2-(2-acetylphenyl)hydrazineylidene)-7-methyl-3-oxo-5-phenyl-2,3-dihydro-5H-thiazolo[3,2-a]pyrimidine-6-carboxylate] |  | 9.01 ± 2.17 |  | 199 to 202
14 | COC(=O)C1=C(C)N=C2SC(=NNc3cc(OC)c(OC)c(OC)c3)C(=O)N2C1c1ccccc1 (centres unmarked) [Compound 10c, Methyl 7-methyl-3-oxo-5-phenyl-2-(2-(3,4,5-trimethoxyphenyl)hydrazineylidene)-2,3-dihydro-5H-thiazolo[3,2-a]pyrimidine-6-carboxylate] |  | 24.4 ± 1.25 |  | 211 to 213
15 | COC(=O)C1=C(C)N=C2S/C(=N\Nc3ccccc3C(=O)OC)C(=O)N2C1c1ccccc1 (centres unmarked) [Compound 10d, Methyl 2-((2-(methoxycarbonyl)phenyl)diazenyl)-7-methyl-3-oxo-5-phenyl-2,3-dihydro-5H-thiazolo[3,2-a]pyrimidine-6-carboxylate] |  | 8.27 ± 0.39 |  | 184 to 186
16 | COC(=O)C1=C(C)N=C2SC(=NNc3ccccc3)C(=O)N2C1c1ccccc1 (centres unmarked) [Compound 10j, Methyl 7-methyl-3-oxo-5-phenyl-2-(2-phenylhydrazineylidene)-2,3-dihydro-5H-thiazolo[3,2-a]pyrimidine-6-carboxylate] |  | 21.45 ± 0.1 |  | 124 to 127
17 | COC(=O)C1=C(C)N=C2SC(=NNc3ccc(OC)c(OC)c3)C(=O)N2C1c1ccccc1 (centres unmarked) [Compound 10h, Methyl 2-(2-(3,4-dimethoxyphenyl)hydrazineylidene)-7-methyl-3-oxo-5-phenyl-2,3-dihydro-5H-thiazolo[3,2-a]pyrimidine-6-carboxylate] |  | 14.4 ± 1.23 |  | 204 to 206
18 | COC(=O)C1=C(C)N=C2SC(=NNc3ccccc3C(C)=O)C(=O)N2C1c1ccc(OC)cc1 (centres unmarked) [Compound 12a, Methyl 2-(2-(2-acetylphenyl)hydrazineylidene)-5-(4-methoxyphenyl)-7-methyl-3-oxo-2,3-dihydro-5H-thiazolo[3,2-a]pyrimidine-6-carboxylate] |  | 3.98 ± 0.3 |  | 199 to 201
19 | COC(=O)C1=C(C)N=C2SC(=NNc3cccc(C(C)=O)c3)C(=O)N2C1c1ccccc1 (centres unmarked) [Compound 10m, Methyl 2-(2-(3-acetylphenyl)hydrazineylidene)-7-methyl-3-oxo-5-phenyl-2,3-dihydro-5H-thiazolo[3,2-a]pyrimidine-6-carboxylate] |  | 18.4 ± 0.79 |  | 213 to 216
20 | COC(=O)C1=C(C)N=C2S/C(=N\Nc3ccc4ccccc4c3S(=O)(=O)O)C(=O)N2C1c1ccc(OC)c(OC)c1OC (centres unmarked) [Compound 11g, (2-(6-(Methoxycarbonyl)-7-methyl-3-oxo-5-(2,3,4-trimethoxyphenyl)-5H-thiazolo[3,2-a]pyrimidin-2(3H)-ylidene)hydrazineyl)naphthalene-1-sulfonic acid] |  |  |  | 241 to 244
